Experiments:
[1] = Ex vivo distribution of [^11C] AMP in mice; design: species or system mouse; settings: CD-1 mice, mean ± SD (n = 3)
Procedure: Non-fasted, male CD-1 mice (25 g) were injected via the tail vein with 15.5 MBq (418 μCi, 2.57 μg/kg) of [^11C] AMP. Three mice each were sacrificed by cervical dislocation at 5, 30, and 60 minutes after injection. The lungs, heart, kidneys, liver, spleen, intestine, stomach, and brain were quickly removed and put on ice. One femur and samples of thigh muscle and blood were also collected. The organs were weighed, and the tissue radioactivity measured with an automated gamma counter (LKB Wallac 1282 Compugamma CS Universal Gamma Counter). The percent injected dose per gram of tissue (% ID/g) was calculated by comparison with samples of a standard dilution of the initial dose. All measurements were corrected for decay.

[2] = In vitro metabolism of [^11C] AMP in human whole blood or plasma; type: in vitro ADME
Procedure: Human plasma was prepared from heparinized blood of a healthy volunteer. 50 μL of [^11C] AMP (39.96-70.82 GBq/μmol, 1080-1914 mCi/μmol) was added to 1 mL of plasma or heparinized whole blood at 37° C. In one series of studies, dipyridamole was added to give a concentration of 500 μM in whole blood. One hundred μL samples, which were removed from the incubation mixture at 0, 2, 5, 10, 20, and 30 minutes, were added to 350 μL of water at 0° C. and acidified with 50 μL of 5N perchloric acid. After standing for 5 minutes on ice, the protein precipitate was removed by centrifugation at 13,000×g for 1 minute in a microcentrifuge. The acid soluble supernatant was analyzed by HPLC. Chromatographic separation of the labeled adenosine phosphate esters used a Phenomenex Synergi Polar RP column (4.6×250 mm, 10 micron particle size) eluted with 0.1N perchloric acid at 2 mL/min. Radioactivity was detected by a dual BGO flow detector (Bioscan Inc., Washington D.C.). Optical detection was at 254 nm. Data from both detectors was collected and analyzed by Laura software (Bioscan Inc., Washington D.C.).

[3] = Effect of dipyridamole treatment on uptake and distribution of [^11C] AMP in mice; type: in vivo, mouse; settings: 30 mg/kg dipyridamole ip 60 minutes before [^11C] AMP
Procedure: The effect of dipyridamole treatment on the uptake and distribution of [^11C] AMP, nine mice were given a 30 mg/kg dose of dipyridamole ip 60 minutes prior to administration of the radiotracer was determined. Three mice each were sacrificed 5, 30, and 60 minutes after injection of 23.8 MBq (642 μCi, 8.7 μg/kg) of [^11C] AMP. All tissue samples were handled as described above.

For `Nc1n[11cH]nc2c1ncn2[C@@H]1O[C@H](COP(=O)(O)O)[C@@H](O)[C@H]1O` [[^11C] AMP, [^11C] Adenosine 5′-Monophosphate], the “Ex vivo mouse biodistribution” value ([1]; Blood, 5 minutes after iv injection) was 27.94 ± 8.21 % ID/g, the “Ex vivo mouse biodistribution” value ([1]; Blood, 30 minutes after iv injection) was 27.34 ± 0.41 % ID/g and the “Ex vivo mouse biodistribution” value ([1]; Blood, 60 minutes after iv injection) was 24.34 ± 4.13 % ID/g. The “Ex vivo mouse biodistribution” value ([1]; Bone, 5 minutes after iv injection) was 2.35 ± 0.68 % ID/g, the “Ex vivo mouse biodistribution” value ([1]; Bone, 30 minutes after iv injection) was 2.57 ± 0.34 % ID/g and the “Ex vivo mouse biodistribution” value ([1]; Bone, 60 minutes after iv injection) was 3.21 ± 0.48 % ID/g. The “Ex vivo mouse biodistribution” value ([1]; Brain, 5 minutes after iv injection) was 0.78 ± 0.18 % ID/g, the “Ex vivo mouse biodistribution” value ([1]; Brain, 30 minutes after iv injection) was 1.06 ± 0.19 % ID/g and the “Ex vivo mouse biodistribution” value ([1]; Brain, 60 minutes after iv injection) was 0.80 ± 0.26 % ID/g. The “Ex vivo mouse biodistribution” value ([1]; Heart, 5 minutes after iv injection) was 20.09 ± 3.24 % ID/g, the “Ex vivo mouse biodistribution” value ([1]; Heart, 30 minutes after iv injection) was 18.07 ± 5.19 % ID/g and the “Ex vivo mouse biodistribution” value ([1]; Heart, 60 minutes after iv injection) was 20.47 ± 2.87 % ID/g. The “Ex vivo mouse biodistribution” value ([1]; Intestine, 5 minutes after iv injection) was 1.74 ± 0.41 % ID/g, the “Ex vivo mouse biodistribution” value ([1]; Intestine, 30 minutes after iv injection) was 1.80 ± 0.50 % ID/g and the “Ex vivo mouse biodistribution” value ([1]; Intestine, 60 minutes after iv injection) was 2.17 ± 1.06 % ID/g. For the same molecule, the “Ex vivo mouse biodistribution” value ([1]; Kidneys, 5 minutes after iv injection) was 8.88 ± 3.82 % ID/g, the “Ex vivo mouse biodistribution” value ([1]; Kidneys, 30 minutes after iv injection) was 9.31 ± 2.88 % ID/g and the “Ex vivo mouse biodistribution” value ([1]; Kidneys, 60 minutes after iv injection) was 6.80 ± 4.10 % ID/g. The “Ex vivo mouse biodistribution” value ([1]; Liver, 5 minutes after iv injection) was 7.56 ± 3.98 % ID/g, the “Ex vivo mouse biodistribution” value ([1]; Liver, 30 minutes after iv injection) was 2.99 ± 0.10 % ID/g and the “Ex vivo mouse biodistribution” value ([1]; Liver, 60 minutes after iv injection) was 3.53 ± 0.55 % ID/g. The “Ex vivo mouse biodistribution” value ([1]; Lungs, 5 minutes after iv injection) was 32.37 ± 4.52 % ID/g, the “Ex vivo mouse biodistribution” value ([1]; Lungs, 30 minutes after iv injection) was 29.52 ± 5.42 % ID/g and the “Ex vivo mouse biodistribution” value ([1]; Lungs, 60 minutes after iv injection) was 38.48 ± 3.63 % ID/g. The “Ex vivo mouse biodistribution” value ([1]; Muscle, 5 minutes after iv injection) was 2.14 ± 0.61 % ID/g, the “Ex vivo mouse biodistribution” value ([1]; Muscle, 30 minutes after iv injection) was 3.67 ± 0.54 % ID/g and the “Ex vivo mouse biodistribution” value ([1]; Muscle, 60 minutes after iv injection) was 3.63 ± 1.04 % ID/g. For the same molecule, the “Ex vivo mouse biodistribution” value ([1]; Spleen, 5 minutes after iv injection) was 2.96 ± 1.49 % ID/g, the “Ex vivo mouse biodistribution” value ([1]; Spleen, 30 minutes after iv injection) was 4.75 ± 0.67 % ID/g and the “Ex vivo mouse biodistribution” value ([1]; Spleen, 60 minutes after iv injection) was 4.71 ± 1.06 % ID/g. For the same molecule, the “Ex vivo mouse biodistribution” value ([1]; Stomach, 5 minutes after iv injection) was 1.98 ± 0.36 % ID/g, the “Ex vivo mouse biodistribution” value ([1]; Stomach, 30 minutes after iv injection) was 1.12 ± 0.25 % ID/g and the “Ex vivo mouse biodistribution” value ([1]; Stomach, 60 minutes after iv injection) was 2.10 ± 0.98 % ID/g. For the same molecule, the “conversion of the tracer to adenosine” value ([2]; dipyridamole (500 μM) treated whole human blood, after 5 minutes) was > 60% and the “conversion to ATP” value ([2]; whole human blood, 37° C., after 10 minutes) was > 60%.
For `OCCN(CCO)c1nc(N2CCCCC2)c2nc(N(CCO)CCO)nc(N3CCCCC3)c2n1` [dipyridamole], the “effect on amount of tracer in the blood” value [3] was “did not affect” and the “effect on uptake of [^11C] radiotracer in the lungs” value ([3]; 60 minutes after injection) was “significantly decreased”.

From patent publication US8420049B2 (priority 2002, dated 2013)
